Test results published in ChEMBL document CHEMBL1157372, “gyrA and parC Mutations and associated quinolone resistance in Vibrio anguillarum serotype O2b strains isolated from farmed Atlantic cod (Gadus morhua) in Norway” (2007).
In brackets after ≈: the same amount, converted by molar mass.

What was measured:
Format in all cases: functional
Vibrio anguillarum [1] = experiment: Antimicrobial activity against Vibrio anguillarum serotype O2b 04/09/422-5063 isolate containing gyrA and parC quinolone resistance mutations from Atlantic cod at 30 ug by disc diffusion assay; details: read-out: IZ
Vibrio anguillarum [2] = experiment: Antimicrobial activity against Vibrio anguillarum serotype O2b 04/09/363-5036 isolate containing gyrA and parC quinolone resistance mutations from Atlantic cod at 30 ug by disc diffusion assay; details: read-out: IZ
Vibrio anguillarum [3] = experiment: Antimicrobial activity against Vibrio anguillarum serotype O2b 04/09/494-5106 isolate containing parC position 83 Ser-Ile substitution mutation from Atlantic cod at 30 ug by disc diffusion assay; details: read-out: IZ
Vibrio anguillarum [4] = experiment: Antimicrobial activity against Vibrio anguillarum serotype O2b 04/09/367-5042 isolate containing gyrA and parC quinolone resistance mutations from Atlantic cod at 30 ug by disc diffusion assay; details: read-out: IZ
Vibrio anguillarum [5] = experiment: Antimicrobial activity against Vibrio anguillarum serotype O2b 04/09/367-5043 isolate containing gyrA position 83 Ser-Ile substitution mutation from Atlantic cod at 30 ug by disc diffusion assay; details: read-out: IZ
Vibrio anguillarum [6] = experiment: Antimicrobial activity against Vibrio anguillarum serotype O2b 04/09/363-5034 isolate containing gyrA and parC quinolone resistance mutations from Atlantic cod at 30 ug by disc diffusion assay; details: read-out: IZ
Vibrio anguillarum [7] = experiment: Antimicrobial activity against Vibrio anguillarum serotype O2b 04/09/363-5036 isolate containing gyrA and parC quinolone resistance mutations from Atlantic cod after 5 days by microplate broth dilution method; details: 120 h
Vibrio anguillarum [8] = experiment: Antimicrobial activity against Vibrio anguillarum serotype O2b 04/09/367-5042 isolate containing gyrA and parC quinolone resistance mutations from Atlantic cod after 5 days by microplate broth dilution method; details: 120 h
Vibrio anguillarum [9] = experiment: Antimicrobial activity against Vibrio anguillarum serotype O2b 04/09/494-5106 isolate containing parC position 83 Ser-Ile substitution mutation from Atlantic cod after 5 days by microplate broth dilution method; details: 120 h
Vibrio anguillarum [10] = experiment: Antimicrobial activity against Vibrio anguillarum serotype O2b 04/09/422-5063 isolate containing gyrA and parC quinolone resistance mutations from Atlantic cod after 5 days by microplate broth dilution method; details: 120 h
Vibrio anguillarum [11] = experiment: Antimicrobial activity against Vibrio anguillarum serotype O2b 04/09/367-5043 isolate containing gyrA position 83 Ser-Ile substitution mutation from Atlantic cod after 5 days by microplate broth dilution method; details: 120 h
Vibrio anguillarum [12] = experiment: Antimicrobial activity against Vibrio anguillarum serotype O2b 04/09/363-5034 isolate containing gyrA and parC quinolone resistance mutations from Atlantic cod after 5 days by microplate broth dilution method; details: 120 h
Vibrio anguillarum [13] = experiment: Antimicrobial activity against Vibrio anguillarum BAF33487 containing parC position 90 Glu-Gly substitution mutation

SMILES	zone of inhibition at 30 µg/disc (Vibrio anguillarum [1]) [mm]	zone of inhibition at 30 µg/disc (Vibrio anguillarum [2]) [mm]	zone of inhibition at 30 µg/disc (Vibrio anguillarum [3]) [mm]	zone of inhibition at 30 µg/disc (Vibrio anguillarum [4]) [mm]	zone of inhibition at 30 µg/disc (Vibrio anguillarum [5]) [mm]	zone of inhibition at 30 µg/disc (Vibrio anguillarum [6]) [mm]	MIC (Vibrio anguillarum [7]) [µg/mL]	MIC (Vibrio anguillarum [8]) [µg/mL]	MIC (Vibrio anguillarum [9]) [µg/mL]	MIC (Vibrio anguillarum [10]) [µg/mL]	MIC (Vibrio anguillarum [11]) [µg/mL]	MIC (Vibrio anguillarum [12]) [µg/mL]	MIC (Vibrio anguillarum [13]) [µg/mL]
CC1CCc2cc(F)cc3c(=O)c(C(=O)O)cn1c23 (stereo not given) [FLUMEQUINE]	37	52	17	36	37	54	–	–	–	–	–	–	–
CCn1cc(C(=O)O)c(=O)c2ccc(C)nc21 [NALIDIXIC ACID]	–	–	–	–	–	–	≤ 1	16 (≈ 68.9 µM)	> 128	16 (≈ 68.9 µM)	8 (≈ 34.4 µM)	≤ 1	–
CCn1cc(C(=O)O)c(=O)c2cc3c(cc21)OCO3 [OXOLINIC ACID]	30	47	0	27	28	49	≤ 0.0001	0.06 (≈ 0.23 µM)	16 (≈ 61.2 µM)	0.06 (≈ 0.23 µM)	0.06 (≈ 0.23 µM)	–	6.25 (≈ 23.9 µM)
CCN1CCN(c2cc3c(cc2F)c(=O)c(C(=O)O)cn3C2CC2)CC1 [ENROFLOXACIN]	–	–	–	–	–	–	≤ 0.03	0.25 (≈ 0.696 µM)	1 (≈ 2.78 µM)	0.5 (≈ 1.39 µM)	0.25 (≈ 0.696 µM)	≤ 0.03	–
